US20090176701A1, “Anti-microbial agents that interact with the complement system” (priority 2005, published 2009)

Tests used:
Assay type in all cases: cell-based
E. coli O18:K1:H7 [1] = experiment: Bacterial killing assay in serum or plasma (complement dependence); settings: FIG. 8D; peptides serially diluted to 300 nM, and 30 nM in serum
E. coli O18:K1:H7 [2] = experiment: Bacterial killing assay in 10% blood; parameters: CFU / CFU (Range) / CFU 1 hour / CFU 3 hours / CFU 5 hours / CFU 3 hour: scale not given here; settings: for CFU / CFU 1 hour / CFU 3 hours / CFU 5 hours / activity against O18ac:K1:H7 E. coli strain in blood / bacterial killing activity (effect on bacterial growth): 10% blood; for CFU 1 hour / CFU 3 hours / CFU 5 hours: Table 5, 3000 CFU; for CFU 1 hour: blood 3.4; for CFU 3 hours: blood 4.2; for CFU 5 hours: blood 5.1; for activity against O18ac:K1:H7 E. coli strain in blood: concentrations tested 10 nM to 3 μM, peptide #5 compared to peptide #3; for bacterial survival (outgrowth of bacterial colonies): FIG. 11d, E. coli O18ac:K1:H7 in diluted whole blood; for bacterial killing activity (effect on bacterial growth): FIGS. 1 and 2, TFPI 5 μM, cathepsin G 400 nM
Method: TFPI was incubated with α-thrombin, plasmin, elastase and cathepsin G in 10% blood and tested for bacterial killing activity against E. coli O18:K1:H7 as follows. Recombinant TFPI at 5 μM (unless indicated otherwise), was treated with plasmin (100 nM, lane 3) and α-thrombin (100 nM, lane 7; 1 μM, lane 8) (A), elastase (100 nM, lanes 3 and 4) (B), and cathepsin G (100 nM, lane 4; 1 μM, lanes 5, 6 and 7) (C) in a total volume of 180 μl. The reaction contained TFPI diluted in RPMI 1640 without phenol red, 25 mM Hepes, pH 7.5 (RPMI), 3000 CFU E. coli O18:K1:H7 in 40 μl PBS, and diluted enzyme in 20 μl RPMI. The volume was adjusted with RPMI. The samples were pre-incubated for 15-30 minutes before the addition of anti-coagulant-free fresh blood to a final volume of 200 μl. Controls were 10% blood in RPMI, TFPI at 1, 2 and 5 μM, and the enzymes alone at the respective concentrations. The samples were incubated for 4 hours at 37° C. with 5% CO2 in a humidified incubator and serial dilutions plated on Tryptase soy agar plates. The number of bacterial colonies was determined after overnight incubation at 37° C. All experimental conditions are run in duplicate. The data represent the average colony number.
The 18 μl aliquots were diluted to 10 μM TFPI with 445 μl RPMI 1640 without phenolred, 25 mM Hepes, pH 7.5 (RPMI) and assayed at a final concentration of 5 μM in 200 μl reactions containing 3000 CFU E. coli in 40 μl PBS, 10% non-coagulated blood, and adjusted to the final volume with RPMI. Negative controls were 10% blood in RPMI, TFPI at 5 μM and cathepsin G at 400 nM. Anti-coagulant free blood was freshly drawn and added to the reaction as the last component. The samples were manipulated as described above.
Peptides were designed to test for bacterial killing activity localized in the C-terminal domain of TFPI. Activity was measured against Gram negative (E coli O18:K1:H7. ATCC 700973) bacteria in the presence of 10% blood as described above. Controls were RPMI with 10% blood and 100 nM Tifacogin. The biological activity was determined from the reduction of bacterial colonies, as above.
The three peptides #1, #2, & #3 were diluted in H2O to 10 fold their final assay concentration and incubated with bacteria for 4 hours, at the final concentrations of 3 μM, 300 nM 100 nM and 10 nM. E. coli was used at 3000 CFU/200 μl. Surviving colony numbers were determined as described in Example 1. […] Full-length TFPI has no activity against Gram negative bacteria in these assays at the concentrations tested.
Time-dependency: Peptides were incubated with 3000 CFU E. coli O18:K1:H7 at the indicated final concentrations in the presence of 10% blood in three parallel 200 μl reactions as described above. RPMI with 10% blood was used as negative control. After incubation for 1, 3, or 5 hours samples were assayed for the effect on bacterial survival by plating serial dilutions onto agar plates. […] The effect of peptides on bacterial survival increases over the time-span studied.
In these experiments, variable concentrations of E. coli O18:K1:H7 (3×10^3, 3×10^4 or 3×10^5 CFU/200 μl) were challenged with either 3 μM or 100 nM peptide #3 in RPMI/10% blood, and incubated for 3 or 5 hours before dilution and plating. Briefly, the bacteria were diluted to the indicated CFU in 40 μl PBS, the reactions assembled at a final volume of 200 μl as above, and incubated at 37° C. Serial dilutions of the reactions were plated and the colony number determined after overnight incubation. […] At 5 hours no effect on the high CFU culture was discernable, indicating a titration of the killing activity and the high CFU culture exceeding the capacity.

E. coli O18:K1:H7 [3] = experiment: Bacterial killing assay without blood (growth medium); settings: no blood; for CFU (Range): Table 4, growth medium 6.2
Method: Peptides #1, #3 and #4 were tested for their activity without blood on E. coli O18:K1:H7. The peptides were assayed at 3 μM. The same blood and TFPI controls were included as in Experiment I.

IL-6 secretion = experiment: IL-6 induction assay in diluted whole blood in the presence of LPS; settings: FIG. 11c; peptide and LPS dose-dependent
Method: The ability of TFPI to induce IL-6 secretion in the presence of LPS was tested using TFPI and TFPI analogs, including: (i) TFPI1-161, having just residues 1-161 of TFPI; (ii) TFPI with mutant K1; (iii) TFPI with mutant K2; (iv) TFPI with mutants K1 and K2.
When diluted, freshly drawn whole blood is incubated with LPS derived from the cell wall of Gram-negative bacteria, a cytokine cascade is induced within a few hours.
A peptide consisting of the 22 C-terminal amino acids of TFPI (i.e. SEQ ID NO:3) was tested in an IL-6 assay in the presence of LPS. […] Thus this peptide appears to be able to neutralize the endotoxin activity of LPS.

[4] = Table 1, peptide 300 nM, 3000 CFU/200 μl, 4 hours, blood control 5.1
[5] = Table 1, peptide 3 μM, 3000 CFU/200 μl, 4 hours, blood control 5.1
[6] = Table 4, in blood, peptide 3 μM, blood control 5.1

## NFQRKEKREVIYKVKTKIKAMR (homo sapiens) [Peptide #2, scrambled control peptide, aas 255-276 scramble, reference compound]
E. coli O18:K1:H7 [1]
  bacterial killing activity in serum (rank): inactive
E. coli O18:K1:H7 [2]; [4]
  CFU: 5.3
E. coli O18:K1:H7 [2]; [5]
  CFU: 5.4
E. coli O18:K1:H7 [2]; 3 μM
  CFU 1 hour: 3.4
  CFU 3 hours: 4.3
  CFU 5 hours: 5.2

## TKRKRKKQRVKIAYEEIFVKNM (homo sapiens) [Peptide #1, TFPI aas 255-276, the 22 C-terminal amino acids of TFPI]
E. coli O18:K1:H7 [3]; peptide 3 μM
  CFU (Range): 5.6
E. coli O18:K1:H7 [1]
  bacterial killing activity in serum (rank): greatly reduced activity
IL-6 secretion
  effect of LPS on cytokine production (IL-6): completely reversed the effect of LPS on cytokine production
E. coli O18:K1:H7 [2]; 4 hours
  activity against O18ac:K1:H7 E. coli strain in blood: active
E. coli O18:K1:H7 [2]; 300 nM of peptide
  bacterial survival (outgrowth of bacterial colonies): killed all bacteria
E. coli O18:K1:H7 [2]
  bacterial survival (outgrowth of bacterial colonies): dose-dependently reduced bacterial survival
E. coli O18:K1:H7 [2]; [4]
  CFU: 5.2
E. coli O18:K1:H7 [2]; [5]
  CFU: 1.1
E. coli O18:K1:H7 [2]; [6]
  CFU (Range): 1.1 (0.4-1.2)
E. coli O18:K1:H7 [2]; 300 nM
  CFU 1 hour: 3.4
  CFU 3 hours: 4.2
  CFU 5 hours: 4.2
E. coli O18:K1:H7 [2]; 3 μM
  CFU 1 hour: 3.4
  CFU 3 hours: 1.2
  CFU 5 hours: 0.2
E. coli O18:K1:H7 [2]; Table 9, peptide 3 μm, Heparin, 3 U/mL
  CFU (Range): 5.5
E. coli O18:K1:H7 [2]; Table 9, peptide 3 μm, LMW heparin, 0.3 U/mL
  CFU (Range): 4.7 (4.5-5.1)
E. coli O18:K1:H7 [2]; Table 9, peptide 3 μm, LMW heparin, 3 U/mL
  CFU (Range): 5.3
E. coli O18:K1:H7 [2]; Table 9, peptide 3 μm, no heparin, blood alone 4.9
  CFU (Range): 1.2 (N.D.-1.4)
E. coli O18:K1:H7 [2]; peptide 3 μm, un-fractionated heparin at 0.3 U/ml, data not shown
  bacterial killing activity with un-fractionated heparin: partial loss of bacterial killing activity

## GFIQRISKGGLIKTKRKRKKQRVKIAYEEIFVKNM (homo sapiens) [Peptide #5, TFPI aas 242-276]
E. coli O18:K1:H7 [2]; 4 hours
  activity against O18ac:K1:H7 E. coli strain in blood: similar, but slightly reduced
E. coli O18:K1:H7 [2]; Table 2, peptide 10 nM, blood control 3.5
  CFU: 4.1
E. coli O18:K1:H7 [2]; Table 2, peptide 100 nM, blood control 3.5
  CFU: 2.1

## TFPI: all exogenous TFPI in the examples is the TFPI analog ala-TFPI (SEQ ID NO:2), tifacogin
E. coli O18:K1:H7 [3]; TFPI control
  CFU (Range): 6.2
E. coli O18:K1:H7 [2]; 4 hours
  activity against O18ac:K1:H7 E. coli strain in blood: no activity
E. coli O18:K1:H7 [2]
  bacterial killing activity (effect on bacterial growth): did not exhibit a similar activity
E. coli O18:K1:H7 [2]; Table 1, TFPI control (100 nM Tifacogin), 3000 CFU/200 μl, 4 hours, blood control 5.1
  CFU: 5.2
E. coli O18:K1:H7 [2]; Table 4, in blood, TFPI control
  CFU (Range): 5.2

## LLGDFFRKSKEKIGKEFKRIVQRIKDFLRNLVPRTES [Peptide #4, reference compound]
E. coli O18:K1:H7 [3]; 3000 nM
  inhibition of bacteria in the absence of blood: full inhibition of bacteria
E. coli O18:K1:H7 [2]; [4]
  CFU: 4.9
E. coli O18:K1:H7 [2]; [5]
  CFU: 1.3
E. coli O18:K1:H7 [2]; [6]
  CFU (Range): 1.3 (1.3-1.4)
E. coli O18:K1:H7 [2]; 300 nM
  CFU 1 hour: 3.3
  CFU 3 hours: 3.9
  CFU 5 hours: 3.1
E. coli O18:K1:H7 [2]; 3 μM
  CFU 1 hour: 3.1
  CFU 3 hours: 3.4
  CFU 5 hours: 1.2

## Heparin [reference compound]
E. coli O18:K1:H7 [2]; Table 9, blood alone control with Heparin, 3 U/mL, no peptide
  CFU (Range): 5.4 (5.3-5.4)

B1: Cathepsin G: protease used to digest TFPI, tested alone as negative control at 400 nM (protein, UniProt P08311 21-244, looked up)
Cathepsin G: IIGGRESRPHSRPYMAYLQIQSPAGQSRCGGFLVREDFVLTAAHCWGSNINVTLGAHNIQRRENTQQHITARRAIRHPQYNQRTIQNDIMLLQLSRRVRRNRNVNPVALPRAQEGLRPGTLCTVAGWGRVSMRRGTDTLREVQLRVQRDRQCLRIFGSYDPRRQICVGDRRERKAAFKGDSGGPLLCNNVAHGIVSYGKSSGVPPEVFTRVSSFLPWIRTTMRS
E. coli O18:K1:H7 [2]
  bacterial killing activity (effect on bacterial growth): did not exhibit a similar activity
